Consider three molecules from US20110028398A1, “METHODS FOR TREATING AND LIMITING FIBROTIC DISORDERS AND KELOIDS” (The Arizona Board of Regents, a body corporate acting for …, priority 2006, published 2011).

The test system of assay [1] is CTGF expression in human keloid fibroblasts. Put plainly: TGF-β1-induced CTGF expression, Western blot densitometry related to GAPDH. Type of assay: cell-based. As to the method:
Fibroblast culture: Human keloid fibroblasts were grown in 10 cm^2 dishes to 70% confluence in DMEM with 10% FBS and additional penicillin and streptomycin (1%), at 37° C. and 10% CO2. Cells were serum starved in DMEM containing 0.5% FBS for 48 h before the experiment. At the start of the assay, fresh media was added to the dishes, and cells were either untreated (control) or treated with TGF-β1 (doses ranging from 0.6 to 5 ng/mL), P20 phosphopeptide (doses ranging from 50-200 μM), forskolin (FSK, 10 μM) or SNAP (500 μM) for 24 h. To verify the influence of serum starvation, we also had cells in 10% FBS containing medium (control high serum).
Western blot analysis: At the end of the experiment, cells were rinsed with PBS, and homogenized using UDC buffer. Lysates were mixed, centrifuged (6000×g) for 20 min, and the supernatant was used for determination of CTGF and collagen expression. Samples (20 μg of protein) were loaded on 15 or 10% SDS-PAGE gels, and the proteins were electrophoretically transferred to Immobilon membranes. […] Protein-antibody complexes were visualized using the Odyssey direct infrared fluorescence imaging system (Li-Cor, Lincoln, Nebr.). […]
P20 treatment and CTGF expression: Human keloid fibroblasts were serum-starved in DMEM medium containing 0.5% FBS for 48 hours, stimulated with TGF-beta1 doses ranging from 1.2 to 5 ng/mL and concomitantly treated with the P20 phosphopeptide (50, 100 or 200 μM) for 24 hours. Western blot bands were quantified by densitometry, and CTGF expression was related to GAPDH expression to correct for loading differences. […]
Treatment with compounds that elevate cAMP and cGMP: We next evaluated the influence of compounds that elevate cAMP (Forskolin, FSK) or cGMP (SNAP) on CTGF expression in keloid fibroblasts. […] Western blot bands were quantified by densitometry, and CTGF expression was related to GAPDH expression to correct for loading differences. […]
(Immunoblotting shows a protein as a band on a membrane.)

In assay [2] the test system is CTGF expression in renal fibroblasts. As to conditions: Ott et al., 2003; cited from earlier work.

In the case of `CC(=O)N[C@@H](C(=O)O)C(C)(C)SN=O` (racemic) [SNAP], the “decrease of CTGF expression” value in assay [1] (TGF-β1-stimulated cells, SNAP 500 μM) is on record as “did not decrease”. Also, the “CTGF expression compared to untreated (control) cells” value in assay [1] (non-stimulated cells, SNAP 500 μM, p<0.05) is reported as “two-time increase”.

As for `C=C[C@@]1(C)CC(=O)[C@]2(O)[C@@]3(C)[C@@H](O)CCC(C)(C)[C@@H]3[C@H](O)[C@H](OC(C)=O)[C@@]2(C)O1` [FSK, forskolin], the “decrease of CTGF expression” value in assay [1] (TGF-β1-stimulated fibroblasts (2.5 ng/mL), FSK 10 μM, 24 h) is roughly 50%. As for latrunculin, the CTGF expression entry in assay [2] is “decreased”.
